In paper PMC12163822, “Synthesis and Pharmacological Characterization of a Novel Cannabinoid Receptor 1 Antagonist” (ACS Omega, 2025):

target: cannabinoid receptors; test: [3H]CP55,940 competition binding in rat brain cortex membrane homogenates; design: species or system Sprague-Dawley rat; conditions: competition vs 0.5 nM [3H]CP55,940, rat brain cortex membranes, one-site fit; read-out: IC50
Experimental: Sprague–Dawley rats (n = 5) were anesthetized and sacrificed by decapitation. Spleens and brains were then quickly removed by dissection at 4 °C, and in the case of the brain tissue, the cortex was dissected for the preparation of the membrane homogenates. For this procedure, spleen and cortex samples were homogenized using a Teflon-glass grinder (15 up-and-down strokes at 800 rpm) in 30 volumes of homogenization buffer (1 mM EGTA, 3 mM MgCl2, 50 mM Tris–HCl; pH 7.4) supplemented with […], at 4 °C. The obtained homogenates were centrifuged for 5 min at 1500 rpm. Pellets were removed, and supernatants were centrifuged again for 15 min at 14,000 rpm. For washing, the obtained pellets were resuspended in a buffer and centrifuged again, and the supernatant was removed. The resulting aliquots were stored at −80 °C until use.
To stop the reaction, an ice-cold wash buffer (50 mM Tris–HCl and 0.5% BSA, pH 7.4) was added. Then, the membranes were retained by vacuum filtration to a Whatman GF/C glass microfiber filter (Sigma-Aldrich, St. Louis, MO, USA) and the free radioligand was discarded. Filters with the bound radioligand were transferred to vials containing 5 mL of Ultima Gold cocktail (Revvity, Boston, MA, USA) and measured with a Packard Tri-Carb 2200CA liquid scintillation counter (Revvity, Boston, MA, USA).
Data from radioligand affinity assays were analyzed by using nonlinear regression. A comparison of fits was performed for every curve and the preferred model (one site vs two sites) was chosen in each case. Curves were fitted to the pooled data from multiple experiments. For the evaluation of data from autoradiographic assays, the Kruskal–Wallis test followed by Dunn’s post hoc tests for multiple comparisons was performed. For statistical significance, the threshold was set at p = 0.05. The number of replicates or animal sample number used in each case is stated in the figure legends. GraphPad Prism 9 (GraphPad Software) was employed for data analysis and presentation.

SMILES	IC50 [µM]
COc1ccc2[nH]c3c(c2c1)/C(=C/C(=O)O)C(=O)Nc1ccc(C)cc1-3 [UVI3509]	> 10
CCOC(=O)CC1c2c([nH]c3ccccc23)-c2ccccc2-n2c(C)nnc21 (stereo not shown) [UVI8113]	0.0106
O=C(O)CC1C(=O)Nc2ccccc2-c2[nH]c3ccccc3c21 (stereo not shown) [UVI3504]	5.908 ± 0.00718
CCOC(=O)/C=C1\C(=O)Nc2ccc(F)cc2-c2c1c1cc(C)ccc1n2C(=O)OCC [UVI3503]	> 10

Continued by falling IC50, values first:

IC50 [µM]	SMILES
310	CCOC(=O)/C=C1\C(=O)Nc2ccccc2-c2c1c1ccccc1n2C(=O)OCC [UVI3508]
7.041 ± 0.018	O=C(O)/C=C1\C(=O)Nc2ccccc2-c2[nH]c3ccccc3c21 [UVI3506]
0.00885 ± 0.0146	CCOC(=O)CC1C(=O)Nc2ccccc2-c2[nH]c3ccccc3c21 (stereo not shown) [UVI3505]
